Patent US20110092517A1, “Use of PPAR Delta Ligands for the Treatment or Prevention of Inflammation or Energy Metabolism/Production Related Diseases” (Cerenis Therapeutics S.A. & Nippon Chemiphar Co., Ltd., priority 2009, published 2011)
“Also recorded” adds a separate entry of the source. Where two headings read alike, the source gives them in different places. Values belong to the compound of their own block, whether it stands above or below them.

Key:
[1] = Euglycemic-hyperinsulinemic 2 steps clamp with 3H-glucose after 5 weeks of treatment in WD fed rats; assay type: in vivo, rat; conditions: for Increase of GIR (glucose infusion rate) during the first step / Decrease of HGP (hepatic glucose production): clamp 0.2 U/kg/h insulin, pioglitazone 10, metformin 50, compound I.1 10 mg/kg +metformin 50 mg/kg; for Increase of glycolysis: metformin 50, GW501516 10, compound I.1 10 mg/kg (alone or +metformin 50 mg/kg)
Procedure: After 4 weeks of treatment, a catheter was implanted into the femoral vein under isoflurane anaesthesia and a period of 5-6 days was respected for recovery. […] The morning of the clamp procedure, rats were treated and fasted for 6 hours prior to tracer, glucose and insulin infusions. The beginning of the clamp procedure was performed in the middle of the dark cycle.
The euglycemic hyperinsulinemic 2 steps insulin clamp was performed using 0.2 U/kg/h and 0.8 U/kg/h insulin infusion associated with 3H-glucose infusion. We then assessed:
During the clamp procedure, a bolus (30 μCi) of D-[3-3H]glucose was first injected followed by 4 μCi/min/kg infusion rate during all the experiment to ensure a detectable plasma D[3-3H]glucose enrichment. A bolus of insulin (100 mU) was first injected, and insulin was then infused at a rate of 0.2 U/kg/h for the first 2 hours and 0.8 U/kg/h from 120 minutes to 210 minutes.
Throughout the infusion, glycaemia was assessed with a blood glucose meter from the tip of the tail vein when needed. Euglycemia was maintained by periodically (every 10 minutes) adjusting a variable infusion of 30% glucose. Plasma glucose concentrations and D-[3-3H]glucose specific activity were determined during stable phase in 10 μl of blood sampled from the tip of the tail vein every 20 minutes from 60 to 120 minutes during the first step and from 150 to 210 minutes during the second step.
For glucose turnover measurements, D-[3-3H]glucose enrichments were determined from total blood after deproteinization by a Zn(OH)2 precipitate. Briefly, an aliquot of the supernatant was evaporated to dryness to determine the radioactivity corresponding to D-3-3H. In a second aliquot of the same supernatant, glucose concentration was assessed by the glucose oxidase method (Biomérieux, France).
Calculations for glucose turnover measurements were made from parameters obtained during the infusions in steady-state condition ([…]). Briefly, the D-[3-3H]glucose specific activity was calculated by dividing the D-[3-3H]glucose enrichment by the plasma glucose concentration. The whole body glucose turnover rate was calculated by dividing the rate of D[3-3H]glucose by the D-[3-3H]glucose plasma specific activity. For each rat, the mean values were calculated and averaged with values from rats of the same group. The whole body glycolysis rate was measured by assessing the amount of tritiated water accumulated in the blood during the 3H-glucose infusion and the whole body glycogen synthesis rate was calculated by the difference between the whole body glucose turnover and the whole body glycolysis rate.

TNF-α = TNF-α content in liver and epididymal white adipose tissue after 5 weeks of treatment in WD fed rats (ELISA); assay type: in vivo, rat; conditions: for Decrease of TNF-α levels in epididymal white adipose tissues: metformin 50, GW501516 10, compound I.1 10 mg/kg (alone or +metformin 50 mg/kg)
Procedure: (§1) At the end of the clamp procedure (9.5 hours fasting), perirenal, retroperitoneal, epididymal and inguinal fat pads and liver weights were recorded. Blood was collected from cardiac puncture and plasmas were stored at −80° C. for further assays if needed (depending on the radioactive state of samples). Liver triglyceride content was assessed (enzymatic-colorimetric method) as well as liver and adipose tissue TNF-α content (ELISA method).

[2] = Liver and adipose tissue weights after 5 weeks of treatment in WD fed rats; assay type: in vivo, rat; conditions: for Decrease of liver weight: non significant, pioglitazone 10, GW501516 10 mg/kg
Procedure: as §1

[3] = Plasma biochemistry after 17 days of treatment in WD fed rats (glycemia, insulin, HOMA-IR, adiponectin, FFA, TG); assay type: in vivo, rat; conditions: for Decrease of HOMA-IR / Decrease of plasma insulin: 4 h fasted; for Decrease of HOMA-IR: pioglitazone 10, metformin 50, GW501516 10, compound I.1 10 mg/kg; for Decrease of plasma insulin: pioglitazone 10, metformin 50, GW501516 10, compound I.1 10 mg/kg +metformin 50 mg/kg; for Plasma adiponectin levels: pioglitazone 10, metformin 50, GW501516 10, compound I.1 3 and 10 mg/kg
[4] = Body weight follow-up during treatment in rats fed a high fat/medium fructose diet (WD); assay type: in vivo, rat; conditions: oral once daily, pioglitazone 10, metformin 50, GW501516 10, compound I.1 10 mg/kg (alone or +metformin 50 mg/kg)
Excerpt: The first set of rats was undergoing an OGTT after 3 weeks of treatment (half rats/group of the clamp arm) and the second set was also undergoing an OGTT after 3 weeks of treatment (half rats/group of clamp arm) and the Histology study (3 rats/group). […] Homogenous mild obese and insulin resistant rats were allocated into the different treatment groups and western diet was continued until the end of the experiment. Given that, the 2 series started with a gap of one week Dosage regimen: Rats were treated once daily via the oral route, in the morning. The duration of the treatment was between 5 and 5.5 weeks. […], 10 mg/Kg (n=12) […] The second set of rats was weighted at 8:30 on days 17 and 21, at 1:45 pm on day 24 and at 11:10 am on day 28.

[5] = Triglycerides content in the liver after 5 weeks of treatment in WD fed rats (enzymatic-colorimetric method); assay type: in vivo, rat; conditions: pioglitazone 10, GW501516 10, compound I.1 at any used dose
Procedure: as §1

rat PPARα = target: T1, rat PPARα (Rattus norvegicus, UniProt P37230); experiment: GAL4-PPAR chimera transactivation assay in CV-1 cells at 10% or 0.1% serum (Example 4); assay type: cell-based; conditions: read-out: GAL4-chimera (rat) EC50 (μM) hPPARα
T1 construct: expressed in transfected cells; host or cells: CV-1
T1 sequence (P37230 239-466 limits assumed): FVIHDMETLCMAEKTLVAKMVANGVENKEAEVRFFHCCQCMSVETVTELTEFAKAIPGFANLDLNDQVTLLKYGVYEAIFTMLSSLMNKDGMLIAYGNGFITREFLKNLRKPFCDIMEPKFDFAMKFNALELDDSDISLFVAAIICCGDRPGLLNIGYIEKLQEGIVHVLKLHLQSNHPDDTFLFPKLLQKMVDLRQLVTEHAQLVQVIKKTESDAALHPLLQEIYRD

rat PPARδ = target: T2, rat PPARδ (Rattus norvegicus, UniProt Q62879); experiment: as above; assay type: cell-based; conditions: read-out: GAL4-chimera (rat) EC50 (μM) hPPARδ
T2 construct: expressed in transfected cells; host or cells: CV-1
T2 sequence (Q62879 139-440 limits assumed): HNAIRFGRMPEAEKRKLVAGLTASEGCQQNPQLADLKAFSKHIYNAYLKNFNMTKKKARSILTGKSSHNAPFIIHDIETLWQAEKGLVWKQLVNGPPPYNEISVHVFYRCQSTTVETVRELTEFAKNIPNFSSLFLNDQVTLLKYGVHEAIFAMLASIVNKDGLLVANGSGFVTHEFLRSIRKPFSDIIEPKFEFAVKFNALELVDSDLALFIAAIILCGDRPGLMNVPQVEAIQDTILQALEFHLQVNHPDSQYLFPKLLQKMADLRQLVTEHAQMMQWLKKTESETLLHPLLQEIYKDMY
Procedure: Assays were performed in triplicate for GAL4-chimeras. Experiments were repeated at least three times.
The EC50 were calculated as previously described.
The transactivation activities of the compound I.1 and GW501516 are measured in rat and mouse transactivation assays at 10% and 0.1% serum (Tables 11 and 12).

[6] = test system: TNF-alpha-activated HUVECs; conditions: under physiological flow; cited from earlier work
[7] = Oral glucose tolerance test after 3 weeks of treatment in WD fed rats; assay type: in vivo, rat; conditions: 6 h fasted, oral glucose 2.5 g/kg after 3 weeks, pioglitazone 10, metformin 50, GW501516 10, compound I.1 10 mg/kg

Compound: CN(C)C(=N)N=C(N)N [metformin]
- Insulin resistance / insulin sensitizing effect (overall) ([1]; WD fed rats, after 5 weeks, compound I.1 dose not specified (3 and 10 mg/kg groups), pioglitazone 10, metformin 50 mg/kg): insulin sensitizing effects
- Whole body glucose oxidation ([1]; WD fed rats, clamp after 5 weeks, metformin 50 mg/kg, compound I.1 dose not specified, alone or associated): tended to increase
- Increase of GIR (glucose infusion rate) during the first step ([1]; after 5 weeks): 112%
- Decrease of HGP (hepatic glucose production) [1]: 40%
- GIR during the second step ([1]; clamp 0.8 U/kg/h insulin, after 5 weeks, pioglitazone 10, metformin 50 mg/kg, other groups): tended to increase GIR (not significantly)
- Increase of glycolysis ([1]; clamp 0.8 U/kg/h insulin): 20%
- Decrease of TNF-α levels in epididymal white adipose tissues (TNF-α): 25%
- Decrease of perirenal white adipose tissue ([2]; tendency, metformin 50 mg/kg alone or with compound I.1 10 mg/kg): 27%
- Decrease of HOMA-IR [3]: ~50%
- Decrease of plasma insulin [3]: 44%
- Plasma adiponectin levels [3]: did not prevent a decrease
- Body weight / body weight gain during treatment [4]: decreased
- Body weight / body weight gain during treatment ([4]; listed as Metformin): significantly decreased body weight after 2 weeks of treatment

- EC50 (rat PPARα; 0.1% serum): 1.96 ± 0.7 µM
- EC50 (rat PPARα; 10% serum): > 10 µM
- EC50 (rat PPARδ; 0.1% serum): 0.072 ± 0.025 µM
- EC50 (rat PPARδ; 10% serum): 0.427 ± 0.29 µM
Compound: Cc1cc(SCc2sc(-c3ccc(C(F)(F)F)cc3)nc2C)ccc1OCC(=O)O [GW-501516]
- Triglycerides content in the liver [5]: tended to decrease; also recorded: did not significantly decrease
- Increase of glycolysis ([1]; clamp 0.8 U/kg/h insulin): 21%
- TNF-α content in the liver (TNF-α; compound I.1 10 mg/kg +metformin 50 mg/kg, GW501516 10 mg/kg, other groups): tended to decreased
- Decrease of TNF-α levels in epididymal white adipose tissues (TNF-α): 60%
- Decrease of TNF-α level in the liver (TNF-α; tendency, compound I.1 10 mg/kg +metformin 50 mg/kg, GW501516 10 mg/kg): 12%
- Decrease of liver weight [2]: 8%
- Decrease of HOMA-IR [3]: ~25%
- Decrease of plasma insulin [3]: 21%
- Increase of plasma TG ([3]; GW501516 10 mg/kg, compound I.1 10 mg/kg +metformin 50 mg/kg): 84%
- Plasma adiponectin levels [3]: prevented the decrease
- Body weight / body weight gain during treatment [4]: slightly decreased body weight the first week of treatment but not in a significant manner; also recorded: significant after 4 weeks of treatment
- Rolling and adhesion of hPMNs on TNF-alpha-activated HUVECs [6]: inhibited markedly
- Glucose tolerance (OGTT, AUC, glycemia variation) [7]: strong tendency to improved glucose tolerance

Compound: CCc1ccc(CCOc2ccc(CC3SC(=O)NC3=O)cc2)nc1 (centres unmarked) [pioglitazone]
- Increase of GIR (glucose infusion rate) during the first step ([1]; after 5 weeks): 138%
- Decrease of HGP (hepatic glucose production) [1]: 47%
- Decrease of liver weight [2]: 12%
- Decrease of HOMA-IR [3]: ~50%
- Decrease of plasma insulin [3]: 39%
